Assay [1] relates to 4-analyte M-DP panel (CRP, CXCL10, CXCL13, SAA). In words: Pharmacodynamic M-DP score, 4-analyte panel CRP, CXCL10, CXCL13, SAA (SOMAscan), clinical studies in RA. Format: in vivo, human. The source says: (§1) Serum samples and data from eight interventional clinical studies with seven different active treatments for RA or placebo treatment were obtained and analyzed: sirukumab (anti-IL-6) and placebo treatments in SIRROUND-M (NCT01689532; Takeuchi T, et al. Arthritis Res Ther. 2018 Mar. 7; 20(1): 42), SIRROUND-D (NCT01604343; Takeuchi T, et al. Ann Rheum Dis. 2017 Dec.; 76(12): 2001-2008), and SIRROUND-T (NCT01606761; Aletaha D, et al. Lancet. 2017 Mar. 25; 389(10075): 1206-1217); sirukumab and adalimumab (anti-TNF-alpha) treatments in SIRROUND-H (NCT02019472; Taylor PC, et al. Ann Rheum Dis. 2018 May; 77(5): 658-666); golimumab (anti-TNF-alpha) treatment in GO-FURTHER (NCT00973479; Weinblatt ME, et al. Ann Rheum Dis. 2013 March; 72(3): 381-9); guselkumab (anti-IL-23p19), ustekinumab (anti-IL-12/IL-23p40), and placebo treatments in CNTO1275ARA2001 (NCT01645280; Cox JD, et al. […]); JNJ-40346527 (colony-stimulating factor-1 inhibitor) and placebo treatments in 40346527ARA2001 (NCT01597739; Genovese MC, et al. J Rheumatol. 2015 October; 42(10): 1752-60). Plasma samples were obtained from the RA-MAP TACERA study (Cope AP, et al. Nat Rev Rheumatol. 2018 January; 14(1): 53-60) before (baseline) and 6-months after initiation of conventional synthetic disease-modifying anti-rheumatic drugs (csDMARDs). Details of treatment dose groups, concomitant methotrexate use, and previous experience with csDMARDs and biologics are reported in Table 1. The studies were conducted in accordance with the Declaration of Helsinki. The study protocols were reviewed and approved by an independent ethics committee or institutional review board for each study center. Written informed consent was obtained from all patients before study entry. Additional study details and patient characteristics are available in the referenced publications for each study. For SIRROUND-D and SIRROUND-T studies, sets of serum samples from demographically-matched healthy controls were obtained from commercial sources (BioIVT, Westbury, N.Y.).
(§2) Serum samples from baseline (week 0) and the time points indicated in Table 1 were provided for quantification of 1189 serum analytes using the SomaScan v3.1 platform (SomaLogic, Boulder, Colo.; www.somalogic.com), with the exception of RA-MAP TACERA, for which plasma samples were analyzed for 1301 analytes using the SomaScan v3.2 platform. For some studies, a redacted dataset reporting data for a subset of the analytes was obtained. Relative fluorescence unit (RFU) data were sequentially normalized for hybridization controls (internal standards per samples), median signal across all samples (assumes same total protein concentration across sample set), and calibration controls (common sample standards across analysis plates). Samples failed quality control standards defined by Somalogic were excluded from analyses. The normalized RFU values were log2-transformed for subsequent analyses.
(§3) Changes in analyte expression levels were calculated for individual samples as the log2 transform of the ratio of the analyte level at the indicated time point (visit level) over the analyte level at baseline (baseline level) for a given subject, i.e., log 2(visit level/baseline level). Changes in RA disease-associated analytes per sample were summarized using a pharmacodynamic (PD) molecular disease profile (M-DP) score, defined as the median value of the log 2(visit level/baseline level) values for analytes in the defined M-DP analyte set. […] PD M-DP scores in the log 2(visit level/baseline level) scale can be transformed to percent change from baseline, using the transformation: (2^M-DP score−1)×100%.
In selecting the best minimal set of analytes that performs similarly to the full 14-analyte set, analyte sets that results in significant associations between DAS28-CRP EULAR good vs. no response with p<0.05 for each study were prioritized (Table 4). […]

Another assay has as its system 14-analyte M-DP panel. In words: Pharmacodynamic M-DP score, 14-analyte panel (SomaLogic SOMAscan), clinical studies in RA. Format: in vivo, human.
Source text: as §1, §2, §3
Statistical analyses were performed on log2-transformed data, for either normalized Relative fluorescence unit (RFU) datasets or within-subject fold/baseline datasets. Significance of differences between groups was evaluated using General Linear Models, with t-tests when comparing two groups. […]

Another assay concerns RA patients. The following applies: RA patients; cited from earlier work.
Setting [2] is: 4-analyte, 40346527ARA2001, score at week 4, oral 100 mg BID, response at week 12.
Where [3] appears, read: 4-analyte, 40346527ARA2001, score at week 12, oral 100 mg BID, response at week 12.
Where [4] appears, read: 40346527ARA2001, score at week 4, oral 100 mg BID, response at week 12.
Where [5] appears, read: 40346527ARA2001, score at week 12, oral 100 mg BID, response at week 12.
The mark [6] stands for this setting: 4-analyte, SIRROUND-H, score at week 4, sirukumab SC 50 mg q4w or adalimumab SC 40 mg q2w, response at week 24.
Where [7] appears, read: SIRROUND-H, score at week 4, sirukumab SC 50 mg q4w or adalimumab SC 40 mg q2w, response at week 24.
Setting [8] is: 4-analyte, GO-FURTHER, score at week 14, golimumab IV 2 mg/kg, response at week 24.
[9] abbreviates: GO-FURTHER, score at week 14, golimumab IV 2 mg/kg, response at week 24.

`CC1(C)CC=C(c2nc(C3CC(C)(C)OC(C)(C)C3)ccc2NC(=O)c2nc(C#N)c[nH]2)CC1` [JNJ-40346527, reference compound]: the “M-DP score mean ± SD, All treated” value in assay [1] (4-analyte, 40346527ARA2001, score at week 4, oral 100 mg BID) is −0.03 ± 0.49 log2 (fold/baseline); in assay [1] (4-analyte, 40346527ARA2001, score at week 12, oral 100 mg BID) it was −0.01 ± 0.56 log2 (fold/baseline); with 14-analyte M-DP panel (40346527ARA2001, score at week 4, oral 100 mg BID) it was −0.08 ± 0.27 log2 (fold/baseline); with 14-analyte M-DP panel (40346527ARA2001, score at week 12, oral 100 mg BID), −0.13 ± 0.33 log2 (fold/baseline). The results for the “M-DP score mean difference ± SD, Good vs. No” value (in assay [1] (setting [2]); in assay [1] (setting [3]); in the assay on 14-analyte M-DP panel (setting [4])) were 0.34 ± 0.52 (0.1581) log2 (fold/baseline), −0.68 ± 0.52 (0.0079) log2 (fold/baseline) and 0.08 ± 0.52 log2 (fold/baseline), respectively. Besides, the “M-DP score mean ± SD, DAS28-CRP response group Good” value is −0.29 ± 0.42 log2 (fold/baseline) in assay [1] (setting [2]), −0.50 ± 0.61 log2 (fold/baseline) in assay [1] (setting [3]), 0.29 ± 0.42 log2 (fold/baseline) in the assay with 14-analyte M-DP panel (setting [4]) and −0.50 ± 0.61 log2 (fold/baseline) with 14-analyte M-DP panel (setting [5]). In addition, the “M-DP score mean ± SD, DAS28-CRP response group Moderate” value in assay [1] (setting [2]) is −0.05 ± 0.48 log2 (fold/baseline); in assay [1] (setting [3]), −0.07 ± 0.55 log2 (fold/baseline); in the assay on 14-analyte M-DP panel (setting [4]), −0.05 ± 0.48 log2 (fold/baseline); in the assay on 14-analyte M-DP panel (setting [5]), −0.07 ± 0.55 log2 (fold/baseline). Further, the “M-DP score mean ± SD, DAS28-CRP response group No” value was −0.09 ± 0.54 log2 (fold/baseline) in assay [1] (setting [2]), 0.18 ± 0.50 log2 (fold/baseline) in assay [1] (setting [3]), −0.09 ± 0.54 [23] log2 (fold/baseline) in the assay with 14-analyte M-DP panel (setting [4]) and 0.18 ± 0.50 [22] log2 (fold/baseline) in the assay on 14-analyte M-DP panel (setting [5]). The “GMean M-DP scores, change” value in the assay on 14-analyte M-DP panel (week 4 or latest time point evaluated (weeks 28, 28, and 12, respectively)) is on record as “not decreased”. The “clinical efficacy in the underlying clinical studies” value in the assay on RA patients is reported as “not clinically efficacious”.

As for adalimumab [reference compound], in assay [1] (4-analyte, SIRROUND-H, score at week 4, sirukumab SC 50 mg q4w or adalimumab SC 40 mg q2w), the “M-DP score mean ± SD, All treated” value is listed as −0.43 ± 0.53 log2 (fold/baseline). Moreover, in assay [1] (setting [6]), the “M-DP score mean difference ± SD, Good vs. No” value is on record as −0.29 ± 0.45 (0.0217) log2 (fold/baseline); the “M-DP score mean ± SD, DAS28-CRP response group Good” value was −0.58 ± 0.50 log2 (fold/baseline); the “M-DP score mean ± SD, DAS28-CRP response group Moderate” value is listed as −0.39 ± 0.59 log2 (fold/baseline); the “M-DP score mean ± SD, DAS28-CRP response group No” value was −0.29 ± 0.37 log2 (fold/baseline). The same compound yielded a M-DP score decrease in assay [1] (4-analyte, adalimumab, week 4) of 26%. In assay [1] (4-analyte, week 4), the “M-DP score effect size (decrease below zero)” value is given as 0.8 standard deviations. In the assay on 14-analyte M-DP panel (SIRROUND-H, 4-week treatment, adalimumab SC 40 mg q2w), this compound had a M-DP score decrease of 12%. The “M-DP score mean ± SD, All treated” value in the assay on 14-analyte M-DP panel (SIRROUND-H, score at week 4, sirukumab SC 50 mg q4w or adalimumab SC 40 mg q2w) was −0.18 ± 0.33 log2 (fold/baseline). In the assay on 14-analyte M-DP panel (setting [7]), the “M-DP score mean difference ± SD, Good vs. No” value is −0.06 ± 0.33 log2 (fold/baseline); the “M-DP score mean ± SD, DAS28-CRP response group Good” value is reported as −0.22 ± 0.37 log2 (fold/baseline); the “M-DP score mean ± SD, DAS28-CRP response group Moderate” value was −0.17 ± 0.33 log2 (fold/baseline); the “M-DP score mean ± SD, DAS28-CRP response group No” value was −0.14 ± 0.26 [23] * log2 (fold/baseline).

Take golimumab [reference compound]: the “M-DP score mean ± SD, All treated” value in assay [1] (4-analyte, GO-FURTHER, score at week 14, golimumab IV 2 mg/kg weeks 0, 4, then q8w plus methotrexate) was −0.94 ± 0.63 log2 (fold/baseline). For the same compound, in assay [1] (setting [8]), the “M-DP score mean difference ± SD, Good vs. No” value was −0.56 ± 0.55 (0.0003) log2 (fold/baseline); the “M-DP score mean ± SD, DAS28-CRP response group Good” value is −1.13 ± 0.61 log2 (fold/baseline); the “M-DP score mean ± SD, DAS28-CRP response group Moderate” value is on record as −0.94 ± 0.68 log2 (fold/baseline); the “M-DP score mean ± SD, DAS28-CRP response group No” value was −0.57 ± 0.43 log2 (fold/baseline). In addition, in assay [1] (golimumab treatment data), the “M-DP score decrease, good response subgroup” value stood at 54% and the “M-DP score decrease, no response subgroup” value was determined as 33%. Moreover, the M-DP score decrease with 14-analyte M-DP panel (GO-FURTHER, 14-weeks treatment, golimumab IV) is 26%. Moreover, the “M-DP score mean ± SD, All treated” value in the assay on 14-analyte M-DP panel (GO-FURTHER, score at week 14, golimumab IV 2 mg/kg weeks 0, 4, then q8w plus methotrexate) is −0.44 ± 0.37 log2 (fold/baseline). Also, in the assay with 14-analyte M-DP panel (setting [9]), the “M-DP score mean difference ± SD, Good vs. No” value was −0.35 ± 0.35 log2 (fold/baseline); the “M-DP score mean ± SD, DAS28-CRP response group Good” value was −0.56 ± 0.39 log2 (fold/baseline); the “M-DP score mean ± SD, DAS28-CRP response group Moderate” value is given as −0.45 ± 0.34 log2 (fold/baseline); the “M-DP score mean ± SD, DAS28-CRP response group No” value is −0.21 ± 0.27 [22] * log2 (fold/baseline). Further, in the assay with RA patients, the “clinical efficacy in the underlying clinical studies” value was “clinically efficacious”.

Source of the values: patent US20230243822A1, “MOLECULAR DISEASE PROFILE AND USE THEREOF FOR MONITORING AND TREATING RHEUMATAOID ARTHRITIS” (JANSSEN BIOTECH, INC., priority 2020, published 2023).
